In patent US4740233A, “Substituted 1,2,4-triazolo[1,5-a]-pyrimidine-2-sulfonamides and compositions and methods of controlling undesired vegetation and suppressing the nitrification of ammonium nitrogen in soil” (The Dow Chemical Company, priority 1986, dated 1988):

Columns and labels:
Assay in all cases: Postemergent control of plant species
cocklebur = assay type: in vivo, Xanthium spp.; conditions: Xanthium strumarium, post-emergence, 336 h, read-out: percent postemergent control
Experimental: In representative operations, each compound to be utilized in a series of tests is dissolved in acetone to one-half of the final volume (twice the final concentration) to be used and the acetone solution in each case is admixed with an equal volume of water containing 0.1 percent by weight of surface active material. The compositions, generally in the nature of an emulsion, were employed to spray separate respective plant species which had been grown to a 2-4 leaf stage in soil of good nutrient content in a greenhouse. The various beds were positioned side by side and exposed to substantially identical conditions of temperature and light. Each bed was maintained so as to prevent any interaction with test compounds in different seed beds. Other plants were left untreated to serve as controls. After treatment, the plants were maintained for about two weeks under greenhouse conditions conducive for good plant growth and watered as necessary. Control refers to the reduction in growth compared to the observed results of the same untreated species.

sugar beet = assay type: in vivo, Beta saccharifera; conditions: Beta vulgaris, post-emergence, 336 h, read-out: percent postemergent control
How it was run: (§1)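 Compounds in acetone mixed 1:1 with water containing 0.1% surfactant, sprayed postemergence on greenhouse plants at the 2-4 leaf stage. Growth reduction versus untreated plants of the same species scored after about two weeks.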

yellow foxtail = assay type: in vivo, Setaria lutescens; conditions: Setaria, post-emergence, 336 h, read-out: percent postemergent control
How it was run: as §1

rice = assay type: in vivo, Oryza sativa; conditions: Oryza sativa, post-emergence, 336 h, read-out: percent postemergent control
How it was run: as §1

pigweed = assay type: in vivo, Amaranthus spp.; conditions: Amaranthus retroflexus, post-emergence, 336 h, read-out: percent postemergent control
How it was run: as §1

wild oats = assay type: in vivo, Avena fatua; conditions: Avena fatua, post-emergence, 336 h, read-out: percent postemergent control
How it was run: as §1

barnyardgrass = assay type: in vivo, Echinochloa crusgalli; conditions: Echinochloa crus-galli, post-emergence, 336 h, read-out: percent postemergent control
How it was run: as §1

velvetleaf = assay type: in vivo, Abutilon theophrasti; conditions: Abutilon theophrasti, post-emergence, 336 h, read-out: percent postemergent control
How it was run: as §1

jimsonweed = assay type: in vivo, Datura stramonium; conditions: Datura stramonium, post-emergence, 336 h, read-out: percent postemergent control
How it was run: as §1

johnson grass = assay type: in vivo, Sorghum halepense; conditions: Sorghum halepense, post-emergence, 336 h, read-out: percent postemergent control
How it was run: as §1

rape = assay type: in vivo, Brassica napus; conditions: Brassica napus, post-emergence, 336 h, read-out: percent postemergent control
How it was run: as §1

wheat = assay type: in vivo, Triticum aestivum; conditions: Triticum aestivum, post-emergence, 336 h, read-out: percent postemergent control
How it was run: as §1

sorghum = assay type: in vivo, Sorghum vulgare; conditions: Sorghum, post-emergence, 336 h, read-out: percent postemergent control
How it was run: as §1

yellow nutsedge = assay type: in vivo, Cyperus esculentus; conditions: Cyperus, post-emergence, 336 h, read-out: percent postemergent control
How it was run: as §1

corn = assay type: in vivo, Zea mays; conditions: Zea mays, post-emergence, 336 h, read-out: percent postemergent control
How it was run: as §1

annual morning glory = assay type: in vivo, Ipomoea spp.; conditions: Ipomoea, post-emergence, 336 h, read-out: percent postemergent control
How it was run: as §1

soybean = assay type: in vivo, Glycine max.; conditions: Glycine max, post-emergence, 336 h, read-out: percent postemergent control
How it was run: as §1

cotton = assay type: in vivo, Gossypium spp.; conditions: Gossypium hirsutum, post-emergence, 336 h, read-out: percent postemergent control
How it was run: as §1

crabgrass = assay type: in vivo, Digitaria spp.; conditions: Digitaria sanguinalis, post-emergence, 336 h, read-out: percent postemergent control
How it was run: as §1

Row | SMILES | pest or weed control at 500 ppm (cocklebur) | plant injury at 500 ppm (sugar beet) | pest or weed control at 500 ppm (yellow foxtail) | plant injury at 500 ppm (rice) | pest or weed control at 500 ppm (pigweed) | pest or weed control at 500 ppm (wild oats) | pest or weed control at 500 ppm (barnyardgrass) | pest or weed control at 500 ppm (velvetleaf) | pest or weed control at 500 ppm (jimsonweed) | pest or weed control at 500 ppm (johnson grass) | plant injury at 500 ppm (rape) | plant injury at 500 ppm (wheat) | plant injury at 500 ppm (sorghum) | pest or weed control at 500 ppm (yellow nutsedge) | plant injury at 500 ppm (corn) | pest or weed control at 500 ppm (annual morning glory) | plant injury at 500 ppm (soybean) | plant injury at 500 ppm (cotton) | pest or weed control at 500 ppm (crabgrass)
1 | Cc1ccn2nc(S(=O)(=O)Nc3c(F)c(F)cc(F)c3F)nc2n1 [Compound 163] | 40% | 0% | 50% | 0% | 90% | 0% | 0% | 20% | 70% | 0% | 70% | 0% | 0% | 0% | 0% | 0% | 0% | 0% | 0%
2 | Cc1cc(C)n2nc(S(=O)(=O)Nc3c(Cl)ccc4ccccc34)nc2n1 [Compound 243] | 100% | 95% | 75% | 45% | 80% | 0% | 70% | 90% | 95% | 80% | 100% | 20% | 75% | 95% | 75% | 80% | 85% | 80% | 0%
3 | Cc1ccn2nc(S(=O)(=O)Nc3c(Cl)ccc4ccccc34)nc2n1 [Compound 244] | 100% | 100% | 95% | 40% | 100% | 0% | 40% | 100% | 100% | 80% | 100% | 20% | 90% | 90% | 40% | 90% | 45% | 100% | 40%
4 | COC(=O)c1c(NS(=O)(=O)c2nc3nc(C)ccn3n2)c(C)nn1C [Compound 248] | 0% | 75% | 0% | 50% | 0% | 0% | 0% | 100% | 0% | 0% | 100% | 0% | 80% | 0% | 0% | 0% | 40% | 50% | 0%
5 | COC(=O)c1nn(C)c(C)c1NS(=O)(=O)c1nc2nc(C)cc(C)n2n1 [Compound 250] | 50% | 30% | 0% | 0% | 40% | 0% | 0% | 70% | 50% | 0% | 70% | 0% | 0% | 0% | 0% | 25% | 50% | 0% | 0%
